Columns and labels:
[1] = target: ENPP2 (Mus musculus, UniProt Q9R1E6); parameters: species or system mice; conditions: in vivo, 30 mg/kg
[2] = test system: CD3+ CD4+ and CD3+ CD8+ T cells in PBMC; experiment: LPA induced T cell activation assay (HLADR and CD38 co-expression, flow cytometry); type: cell-based, human; conditions: 100 uM LPA
Protocol: FIGS. 4(A-B) are a series of charts showing LPA dependent T cell activation. 500,000 PBMC from 5 healthy controls and 3 untreated HIV infected subjects were cultured overnight in the absence or presence of PHA, followed by 3 days of culture in media or 100 uM LPA. Proportion of CD3^+ CD4^+ (Panel A) and CD3^+ CD8^+ (Panel B) T cells that express of HLA DR and CD38 are shown. Statistical analysis shown for all 8 subjects combined. Comparisons between presence and absence of LPA in PHA pre-treated healthy control CD4 and CD8 activation were also significant (P=0.04, P=0.04).
To determine whether LPA can directly contribute to immune activation we have conducted LPA induced T cell activation assays using HLADR and CD38 co-expression as a readout (FIG. 4).

[3] = test system: monocytes; experiment: In vitro monocyte activation by LPA; type: cell-based

Row | Compound | Reversal of deleterious effect on T cell function and neoantigen response [1] | T cell activation (HLADR and CD38 co-expression) ([2]; PBMC from healthy controls and untreated HIV infected subjects, 4 day culture, with or without PHA) | Activation in the CD4 compartment ([2]; regardless of pre-activation, more robust with PHA pre-activation) | Monocyte activation [3]
1 | O=C(CCN1CCN(C(=O)OCc2cc(Cl)cc(Cl)c2)CC1)c1ccc2[nH]c(=O)oc2c1 [PF-8380] | at least partially reversed | – | – | –
2 | lysophosphatidic acid [LPA] | – | enhanced T cell activation | Activation was observed | activated monocytes
